# Results: US8076327B2, “Condensed imidazole derivatives as aldosterone synthase inhibitors” (Novartis AG, priority 2006, dated 2011)
# Columns and labels:
# [1] = molecular target: T1, recombinant human Cyp19 enzyme (Homo sapiens, UniProt P11511); experiment: Cyp19/MFC high throughput enzyme inhibition kit (aromatase); type: biochemical
# T1 construct: purchased Becton Dickinson Biosciences, San Jose, Calif., USA
# T1 sequence (P11511 1-503): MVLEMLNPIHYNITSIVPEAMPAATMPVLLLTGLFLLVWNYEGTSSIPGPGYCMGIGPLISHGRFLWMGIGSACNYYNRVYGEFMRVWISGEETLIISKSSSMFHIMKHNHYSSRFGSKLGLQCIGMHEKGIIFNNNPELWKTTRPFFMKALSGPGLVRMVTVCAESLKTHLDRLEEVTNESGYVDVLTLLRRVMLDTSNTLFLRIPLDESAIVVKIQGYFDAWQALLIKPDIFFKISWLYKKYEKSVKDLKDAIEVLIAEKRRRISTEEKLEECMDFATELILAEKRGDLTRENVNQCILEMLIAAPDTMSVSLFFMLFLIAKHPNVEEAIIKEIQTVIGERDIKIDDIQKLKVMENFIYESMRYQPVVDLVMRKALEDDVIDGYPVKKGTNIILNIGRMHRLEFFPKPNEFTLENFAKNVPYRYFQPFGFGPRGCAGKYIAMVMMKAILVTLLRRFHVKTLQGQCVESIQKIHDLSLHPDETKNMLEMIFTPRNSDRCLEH
# Experimental: The compounds of the formula (Ia) have at least one asymmetric carbon atom, which is labelled “*”. A compound of the formula (Ia) is to be understood as a compound having a specific configuration around the designated asymmetric carbon atom. If a synthesis method is used which leads to racemic compounds, the racemate resolution is carried out in accordance with conventional methods, such as via a chiral HPLC column. […] The aforementioned aromatase inhibitory activity can, as the skilled worker is well aware and as described below, be comfortably determined using the commercial Cyp19 enzyme inhibition kit, preferably the Cyp19/methoxy-4-trifluoromethyl-coumarin (MFC) high throughput inhibition kit (Becton Dickinson Biosciences, San Jose, Calif., USA) as described hereafter. In the abovementioned inhibition kit, compounds of the formula (Ia) have an activity which is at least 10 times lower preferably 20 times lower, but more preferably 40 times lower than the compounds of the formula (Ia) with the opposite configuration around the asymmetric carbon atom labelled “*”. A lower inhibiting activity corresponds to a higher IC50 value.
# The Cyp19/methoxy-4-trifluoromethyl-coumarin (MFC) high throughput inhibition kit (Becton Dickinson Biosciences, San Jose, Calif., USA), for example, is designed to screen for potential inhibitors of Cyp19 catalytic activity in a 96-well format. […]
# [2] = system: plasma corticosterone levels; experiment: Suppression of plasma corticosterone in ACTH-stimulated rats; type: in vivo, Wistar rats; details: 4 mg/kg p.o.; plasma level 2 h after dosing relative to 1 h prior to dosing; rat
# Experimental: (§1) The aldosterone- and corticosterone-suppressing activity of herein described compounds may be assessed with the following in vivo protocol.
# (§2) Adult male Wistar rats weighing between 250 and 350 grams are kept under the usual 12-hour light and 12-hour dark conditions at a temperature of 23° C.±2° C. On the first day of the experiment, the animals receive a subcutaneous injection of a depot ACTH product in a dose of 1.0 mg/kg weight (SYNACTHEN-Depot, Novartis, Basel, CH) 16 hours prior to the administration of a test compound. […] An alternative method to stimulate aldosterone secretion consists in subjecting rats to a low salt diet for 48 hours and applying the diuretic furosemide at 10 mg/kg by subcutaneous or intraperitoneal administration 16 hours, respectively 2 hours prior to the start of the experiment. On the second day of the experiment, the animals are divided into test groups of 5 animals and subjected to a first bleed 1 hour prior to the administration of test compound. Subsequently, and 16 hours after the injection of the ACTH product, the animals receive either vehicle or test compound dissolved in vehicle in a variable dose range from 0.02 to 20 mg/kg by oral gavage. The animals are bled two more times from the vena subclavia under isoflurane anaesthesia 2 and 6 hours after dosing. The blood is collected in heparin-treated tubes. The plasma samples are obtained by centrifugation and stored at −20° C. An alternative method to bleed animals time-dependently consists in using animals that are chronically carotid catheterized which allows the periodical sampling of up to 0.2 ml of blood using an AccuSampler (DiLab Europe, Lund, Sweden). The blood sampling with the AccuSampler may occur 1 hour prior to the administration of a test compound and 2, 4, 6, 8, 12, 16 and 24 hours thereafter. The blood samples are anticoagulated with heparin and centrifuged. The aldosterone and corticosterone concentrations of the plasma samples can be determined with a radioimmunoassay as described above for the in vitro test systems.
# (§3) The selective suppression of plasma steroid levels as for instance aldosterone in comparison to corticosterone may serve as a measure for in vivo bioavailability and pharmacodynamic enzyme inhibitory activity of the herein described compounds. The evaluation of the data may occur relative to the application of vehicle or quantitatively by determination of the area under the curve (AUC).
# [3] = system: plasma aldosterone levels; experiment: Suppression of plasma aldosterone in ACTH-stimulated rats; type: in vivo, Wistar rats; details: 4 mg/kg p.o.; plasma level 2 h after dosing relative to 1 h prior to dosing; rat
# Experimental: as §1, §2, §3
SMILES,IC50 [1],Corticosterone levels (% change at 2 h) [2],Aldosterone levels (% change at 2 h) [3]
"N#Cc1ccc(C2OCCn3cncc32)cc1 (racemic) [antipode of 24, 4-(5,6-Dihydro-8H-imidazo[5,1-c][1,4]oxazin-8-yl)benzonitrile]",7.1 nM,,
"N#Cc1ccc(C2SCCn3cncc32)cc1 (stereo not drawn) [Example 2, 4-(5,6-Dihydro-8H-imidazo[5,1-c][1,4]thiazin-8-yl)benzonitrile]",,−22%,−56%
"CC1(c2ccc(C#N)cc2)SCCn2cncc21 (stereo not drawn) [Example 4, 4-(8-Methyl-5,6-dihydro-8H-imidazo[5,1-c][1,4]thiazin-8-yl)-benzonitrile]",,−10%,−19%
"CC(=O)c1ccc(C2OCCn3cncc32)cc1 (stereo not drawn) [Example 18, 1-[4-(5,6-Dihydro-8H-imidazo[5,1-c][1,4]oxazin-8-yl)phenyl]ethanone]",,4%,−33%
"N#Cc1cccc(C2OCCn3cncc32)c1 (stereo not drawn) [Example 19, 3-(5,6-Dihydro-8H-imidazo[5,1-c][1,4]oxazin-8-yl)benzonitrile]",,1.7%,−65%
